# Laboratory results: ChEMBL document CHEMBL1201862, “PubChem BioAssay data set” (2004)
#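 Tested at 5 concentrations; 48 h exposure; 96-well plates; endpoints linearly interpolated, else capped at highest concentration. The concentration for 50% growth inhibition is given as GI50.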 Active and inactive are the calls of the source. Rule as the data show it: active = GI50 up to about 1.1 µM and inactive = higher.
# Tests used:
# Experiment in all cases: NCI tumour cell line growth inhibition, 48 h
# OVCAR-4 = tested on: OVCAR-4
# U-251 = tested on: U-251
# A549 = tested on: A549
# HOP-92 = tested on: HOP-92
# SNB-19 = tested on: SNB-19
# HL-60 = tested on: HL-60
# OVCAR-8 = tested on: OVCAR-8
# KM12 = tested on: KM12
# CCRF-CEM = tested on: CCRF-CEM
# SW-620 = tested on: SW-620
# SF-268 = tested on: SF-268
# COLO 205 = tested on: COLO 205
# SR = tested on: SR
# OVCAR-3 = tested on: OVCAR-3
# NCI-H226 = tested on: NCI-H226
# LOX IMVI = tested on: LOX IMVI
# Malme-3M = tested on: Malme-3M
# MDA-MB-435 = tested on: MDA-MB-435
# MCF7 = tested on: MCF7
# Hs-578T = tested on: Hs-578T
SMILES,GI50 (OVCAR-4),GI50 (U-251),GI50 (A549),GI50 (HOP-92),GI50 (SNB-19),GI50 (HL-60),GI50 (OVCAR-8),GI50 (KM12),GI50 (CCRF-CEM),GI50 (SW-620),GI50 (SF-268),GI50 (COLO 205),GI50 (SR),GI50 (OVCAR-3),GI50 (NCI-H226),GI50 (LOX IMVI),GI50 (Malme-3M),GI50 (MDA-MB-435),GI50 (MCF7),GI50 (Hs-578T)
CCOC(=O)NN(C(=O)OCC)C(C(=O)c1ccc(Cl)cc1)=C1NCCN1,> 100 µM (inactive),> 100 µM (inactive),> 100 µM (inactive),> 100 µM (inactive),> 100 µM (inactive),> 100 µM (inactive),> 100 µM (inactive),> 100 µM (inactive),> 100 µM (inactive),> 100 µM (inactive),> 100 µM (inactive),> 100 µM (inactive),> 100 µM (inactive),> 100 µM (inactive),> 100 µM (inactive),> 100 µM (inactive),> 100 µM (inactive),,,
CSc1ncc2c(n1)C(C#N)C1Sc3ccccc3N1C2=O (stereo unspecified),> 100 µM (inactive),34.5 µM (inactive),> 100 µM (inactive),80 µM (inactive),53.6 µM (inactive),,> 100 µM (inactive),> 100 µM (inactive),,> 100 µM (inactive),44.9 µM (inactive),> 100 µM (inactive),,> 100 µM (inactive),> 100 µM (inactive),> 100 µM (inactive),> 100 µM (inactive),> 100 µM (inactive),,
BrC1=C(Br)C2(SCCS2)[C@H]2C[C@@H]1c1ccccc12,29.9 µM (inactive),37.8 µM (inactive),> 54.1 µM (inactive),> 59.2 µM (inactive),> 100 µM (inactive),20.9 µM (inactive),> 100 µM (inactive),11.6 µM (inactive),14.6 µM (inactive),35.3 µM (inactive),63.7 µM (inactive),29.4 µM (inactive),9.4 µM (inactive),> 100 µM (inactive),64.1 µM (inactive),43.7 µM (inactive),32.1 µM (inactive),4.4 µM (inactive),22.3 µM (inactive),
Nc1c2ccccc2nc2c1ccc1ncccc12,17.9 µM (inactive),39.1 µM (inactive),21.9 µM (inactive),22.8 µM (inactive),36.8 µM (inactive),4.32 µM (inactive),21.2 µM (inactive),15.1 µM (inactive),6.78 µM (inactive),11.7 µM (inactive),,20.3 µM (inactive),12.2 µM (inactive),24 µM (inactive),13.9 µM (inactive),6.03 µM (inactive),12.4 µM (inactive),27.8 µM (inactive),6.46 µM (inactive),
O=[As](O)(O)c1cc(/N=N/c2ccc(-c3ccc(/N=N/c4cc([As](=O)(O)O)c(O)cc4O)cc3)cc2)c(O)cc1O,> 42.9 µM (inactive),> 100 µM (inactive),> 100 µM (inactive),> 100 µM (inactive),> 100 µM (inactive),> 48.8 µM (inactive),> 100 µM (inactive),> 100 µM (inactive),> 45.8 µM (inactive),> 100 µM (inactive),> 100 µM (inactive),> 100 µM (inactive),> 100 µM (inactive),> 52.8 µM (inactive),> 100 µM (inactive),> 100 µM (inactive),> 69.2 µM (inactive),,,
Cc1cc(S(=O)(=O)Nc2nc(N)nc(N3N=CCC3C)n2)c(S)cc1Cl (stereo unspecified),> 10 µM (inactive),> 10 µM (inactive),> 10 µM (inactive),> 10 µM (inactive),> 10 µM (inactive),> 10 µM (inactive),> 10 µM (inactive),> 10 µM (inactive),> 10 µM (inactive),> 10 µM (inactive),> 10 µM (inactive),> 10 µM (inactive),> 10 µM (inactive),> 10 µM (inactive),> 10 µM (inactive),> 10 µM (inactive),> 10 µM (inactive),,> 10 µM (inactive),> 10 µM (inactive)
CCCCCCCCCC(=O)CC(=O)c1ccc(O)cc1O,42.1 µM (inactive),26.9 µM (inactive),31.3 µM (inactive),27.7 µM (inactive),37 µM (inactive),19 µM (inactive),22.6 µM (inactive),21.4 µM (inactive),33.9 µM (inactive),36.5 µM (inactive),40.8 µM (inactive),> 100 µM (inactive),15.8 µM (inactive),22.6 µM (inactive),24.3 µM (inactive),17.5 µM (inactive),52.6 µM (inactive),,,
COP1(=O)NCc2ncccc2O1 (stereo unspecified),> 100 µM (inactive),> 100 µM (inactive),> 100 µM (inactive),> 100 µM (inactive),> 100 µM (inactive),,> 100 µM (inactive),> 100 µM (inactive),> 100 µM (inactive),> 100 µM (inactive),,> 100 µM (inactive),> 100 µM (inactive),> 100 µM (inactive),> 100 µM (inactive),> 100 µM (inactive),,> 100 µM (inactive),> 100 µM (inactive),
CCC12C=CCN3CCC4(C(=C(C(=O)OC)C1)Nc1ccccc14)[C@H]32 (stereo partly specified),29.4 µM (inactive),,34.7 µM (inactive),23.4 µM (inactive),26.6 µM (inactive),16 µM (inactive),,25.8 µM (inactive),22.2 µM (inactive),26 µM (inactive),19.5 µM (inactive),18.4 µM (inactive),0.0364 µM (active),30.8 µM (inactive),31.8 µM (inactive),20.8 µM (inactive),42.4 µM (inactive),,,
CCOC(=O)C(Cc1c[nH]c2cc([N+](=O)[O-])ccc12)NS(=O)(=O)c1ccc2ccccc2c1 (stereo unspecified),10.9 µM (inactive),17.6 µM (inactive),30.6 µM (inactive),19.9 µM (inactive),37.9 µM (inactive),22.8 µM (inactive),21.4 µM (inactive),17.1 µM (inactive),20.1 µM (inactive),21.2 µM (inactive),20.2 µM (inactive),18 µM (inactive),17.5 µM (inactive),16.7 µM (inactive),16.7 µM (inactive),17.5 µM (inactive),> 10 µM (inactive),,,
OCC(O)COCn1nncc1Cn1ncc2c(SCc3ccccc3)ncnc21 (stereo unspecified),> 100 µM (inactive),> 100 µM (inactive),> 100 µM (inactive),,> 100 µM (inactive),,> 100 µM (inactive),> 100 µM (inactive),> 100 µM (inactive),> 100 µM (inactive),14.5 µM (inactive),> 100 µM (inactive),,> 100 µM (inactive),,> 100 µM (inactive),,> 100 µM (inactive),> 100 µM (inactive),0.203 µM (active)
CCCCCCCCCCCCCCCCCCNC(=S)N/C=C1\C(=O)Nc2ccccc2C1=O,20.6 µM (inactive),19.2 µM (inactive),21.1 µM (inactive),15.8 µM (inactive),17.3 µM (inactive),4.92 µM (inactive),15.6 µM (inactive),16.1 µM (inactive),,19.5 µM (inactive),13.6 µM (inactive),17.4 µM (inactive),,18.5 µM (inactive),22.9 µM (inactive),16.3 µM (inactive),,19.5 µM (inactive),20.2 µM (inactive),
N/N=C(\Nc1ccccc1)SCc1ccccc1,> 100 µM (inactive),> 100 µM (inactive),> 100 µM (inactive),> 100 µM (inactive),> 100 µM (inactive),> 100 µM (inactive),> 100 µM (inactive),> 100 µM (inactive),> 100 µM (inactive),> 100 µM (inactive),,> 100 µM (inactive),> 100 µM (inactive),> 100 µM (inactive),> 100 µM (inactive),> 100 µM (inactive),> 100 µM (inactive),> 100 µM (inactive),> 100 µM (inactive),
COc1cc2ccc3c4cc(OC)c(OC(C)C)cc4cnc3c2cc1OC,> 100 µM (inactive),> 100 µM (inactive),> 100 µM (inactive),> 100 µM (inactive),> 100 µM (inactive),> 100 µM (inactive),> 100 µM (inactive),> 100 µM (inactive),> 100 µM (inactive),> 100 µM (inactive),> 100 µM (inactive),> 100 µM (inactive),> 100 µM (inactive),> 100 µM (inactive),> 100 µM (inactive),> 100 µM (inactive),> 100 µM (inactive),,,
CC(C)(C)OC(=O)[C@@H]1ON2O[C@H](OC3CCCC3(c3ccccc3)c3ccccc3)C[C@H]3OC(=O)[C@@H]1[C@H]32 (stereo partly specified),14.9 µM (inactive),> 100 µM (inactive),83.2 µM (inactive),,> 100 µM (inactive),,,36.1 µM (inactive),> 100 µM (inactive),85.7 µM (inactive),34.4 µM (inactive),37.3 µM (inactive),> 100 µM (inactive),16.1 µM (inactive),36.9 µM (inactive),31.4 µM (inactive),,57.9 µM (inactive),70 µM (inactive),
CO/C(=N\N=C\c1ccc(OC)cc1OC)c1ccncc1,,> 10 µM (inactive),> 10 µM (inactive),,> 10 µM (inactive),> 10 µM (inactive),> 10 µM (inactive),> 10 µM (inactive),> 10 µM (inactive),> 10 µM (inactive),> 10 µM (inactive),> 10 µM (inactive),> 10 µM (inactive),,> 10 µM (inactive),> 10 µM (inactive),> 10 µM (inactive),,> 10 µM (inactive),
